# Assay results as given in ChEMBL document CHEMBL1649134, “Occurrence of efflux mechanism and cephalosporinase variant in a population of Enterobacter aerogenes and Klebsiella pneumoniae isolates producing extended-spectrum beta-lactamases” (2009).
# Experiments:
# Klebsiella aerogenes [1] = assay: Inhibition of multidrug resistance efflux pump in Enterobacter aerogenes isolate 6 assessed as increase in intracellular [14C]chloramphenicol accumulation relative to untreated control; type: cell-based
# Klebsiella aerogenes [2] = assay: Inhibition of multidrug resistance efflux pump in Enterobacter aerogenes isolate 13 assessed as increase in intracellular [14C]chloramphenicol accumulation relative to untreated control; type: cell-based
# Klebsiella aerogenes [3] = assay: Inhibition of multidrug resistance efflux pump in Enterobacter aerogenes isolate 17 assessed as increase in intracellular [14C]chloramphenicol accumulation relative to untreated control; type: cell-based
# Klebsiella pneumoniae [4] = assay: Inhibition of multidrug resistance efflux pump in Klebsiella pneumoniae isolate 13 assessed as increase in intracellular [14C]chloramphenicol accumulation relative to untreated control
# Klebsiella pneumoniae [5] = assay: Inhibition of multidrug resistance efflux pump in Klebsiella pneumoniae isolate 14 assessed as increase in intracellular [14C]chloramphenicol accumulation relative to untreated control
# Klebsiella aerogenes [6] = assay: Antimicrobial activity against multidrug resistant Enterobacter aerogenes isolate 1 by broth dilution method; type: functional
# Klebsiella aerogenes [7] = assay: Antimicrobial activity against multidrug resistant Enterobacter aerogenes isolate 2 by broth dilution method; type: functional
# Klebsiella aerogenes [8] = assay: Antimicrobial activity against multidrug resistant Enterobacter aerogenes isolate 3 by broth dilution method; type: functional
# Klebsiella aerogenes [9] = assay: Antimicrobial activity against multidrug resistant Enterobacter aerogenes isolate 4 by broth dilution method; type: functional
# Klebsiella aerogenes [10] = assay: Antimicrobial activity against multidrug resistant Enterobacter aerogenes isolate 5 by broth dilution method; type: functional
# Klebsiella aerogenes [11] = assay: Antimicrobial activity against multidrug resistant Enterobacter aerogenes isolate 6 by broth dilution method; type: functional
# Klebsiella aerogenes [12] = assay: Antimicrobial activity against multidrug resistant Enterobacter aerogenes isolate 7 by broth dilution method; type: functional
# Klebsiella aerogenes [13] = assay: Antimicrobial activity against multidrug resistant Enterobacter aerogenes isolate 8 by broth dilution method; type: functional
# Klebsiella aerogenes [14] = assay: Antimicrobial activity against multidrug resistant Enterobacter aerogenes isolate 9 by broth dilution method; type: functional
# Klebsiella aerogenes [15] = assay: Antimicrobial activity against multidrug resistant Enterobacter aerogenes isolate 10 by broth dilution method; type: functional
# Klebsiella aerogenes [16] = assay: Antimicrobial activity against multidrug resistant Enterobacter aerogenes isolate 11 by broth dilution method; type: functional
# Klebsiella aerogenes [17] = assay: Antimicrobial activity against multidrug resistant Enterobacter aerogenes isolate 12 by broth dilution method; type: functional
# Klebsiella aerogenes [18] = assay: Antimicrobial activity against multidrug resistant Enterobacter aerogenes isolate 13 by broth dilution method; type: functional
# Klebsiella aerogenes [19] = assay: Antimicrobial activity against multidrug resistant Enterobacter aerogenes isolate 14 by broth dilution method; type: functional
# Klebsiella aerogenes [20] = assay: Antimicrobial activity against multidrug resistant Enterobacter aerogenes isolate 15 by broth dilution method; type: functional
# Klebsiella aerogenes [21] = assay: Antimicrobial activity against multidrug resistant Enterobacter aerogenes isolate 16 by broth dilution method; type: functional
# Klebsiella aerogenes [22] = assay: Antimicrobial activity against multidrug resistant Enterobacter aerogenes isolate 17 by broth dilution method; type: functional
# Klebsiella aerogenes [23] = assay: Antimicrobial activity against multidrug resistant Enterobacter aerogenes isolate 18 by broth dilution method; type: functional
# Klebsiella aerogenes [24] = assay: Antimicrobial activity against multidrug resistant Enterobacter aerogenes isolate 19 by broth dilution method; type: functional
# Klebsiella aerogenes [25] = assay: Antimicrobial activity against multidrug resistant Enterobacter aerogenes isolate 20 by broth dilution method; type: functional
# Klebsiella aerogenes [26] = assay: Antimicrobial activity against multidrug resistant Enterobacter aerogenes isolate 21 by broth dilution method; type: functional
# Klebsiella aerogenes [27] = assay: Antimicrobial activity against multidrug resistant Enterobacter aerogenes isolate 22 by broth dilution method; type: functional
# Klebsiella aerogenes [28] = assay: Antimicrobial activity against multidrug resistant Enterobacter aerogenes isolate 23 by broth dilution method; type: functional
# Klebsiella aerogenes [29] = assay: Antimicrobial activity against multidrug resistant Enterobacter aerogenes isolate 24 by broth dilution method; type: functional
# Klebsiella aerogenes [30] = assay: Antimicrobial activity against multidrug resistant Enterobacter aerogenes isolate 25 by broth dilution method; type: functional
# Klebsiella aerogenes [31] = assay: Antimicrobial activity against multidrug resistant Enterobacter aerogenes isolate 26 by broth dilution method; type: functional
# Klebsiella aerogenes [32] = assay: Antimicrobial activity against multidrug resistant Enterobacter aerogenes isolate 27 by broth dilution method; type: functional
# Klebsiella pneumoniae [33] = assay: Antimicrobial activity against multidrug resistant Klebsiella pneumoniae ATCC 11296 by broth dilution method; type: functional
# Klebsiella pneumoniae [34] = assay: Antimicrobial activity against multidrug resistant Klebsiella pneumoniae isolate 1 by broth dilution method; type: functional
# Klebsiella pneumoniae [35] = assay: Antimicrobial activity against multidrug resistant Klebsiella pneumoniae isolate 2 by broth dilution method; type: functional
# Klebsiella pneumoniae [36] = assay: Antimicrobial activity against multidrug resistant Klebsiella pneumoniae isolate 3 by broth dilution method; type: functional
# Klebsiella pneumoniae [37] = assay: Antimicrobial activity against multidrug resistant Klebsiella pneumoniae isolate 4 by broth dilution method; type: functional
# Klebsiella pneumoniae [38] = assay: Antimicrobial activity against multidrug resistant Klebsiella pneumoniae isolate 5 by broth dilution method; type: functional
# Klebsiella pneumoniae [39] = assay: Antimicrobial activity against multidrug resistant Klebsiella pneumoniae isolate 6 by broth dilution method; type: functional
# Klebsiella pneumoniae [40] = assay: Antimicrobial activity against multidrug resistant Klebsiella pneumoniae isolate 7 by broth dilution method; type: functional
# Klebsiella pneumoniae [41] = assay: Antimicrobial activity against multidrug resistant Klebsiella pneumoniae isolate 8 by broth dilution method; type: functional
# Klebsiella pneumoniae [42] = assay: Antimicrobial activity against multidrug resistant Klebsiella pneumoniae isolate 9 by broth dilution method; type: functional
# Klebsiella pneumoniae [43] = assay: Antimicrobial activity against multidrug resistant Klebsiella pneumoniae isolate 10 by broth dilution method; type: functional
# Klebsiella pneumoniae [44] = assay: Antimicrobial activity against multidrug resistant Klebsiella pneumoniae isolate 11 by broth dilution method; type: functional
# Klebsiella pneumoniae [45] = assay: Antimicrobial activity against multidrug resistant Klebsiella pneumoniae isolate 12 by broth dilution method; type: functional
# Klebsiella pneumoniae [46] = assay: Antimicrobial activity against multidrug resistant Klebsiella pneumoniae isolate 13 by broth dilution method; type: functional
# Klebsiella pneumoniae [47] = assay: Antimicrobial activity against multidrug resistant Klebsiella pneumoniae isolate 14 by broth dilution method; type: functional
# Klebsiella pneumoniae [48] = assay: Antimicrobial activity against multidrug resistant Klebsiella pneumoniae isolate 15 by broth dilution method; type: functional
# Klebsiella pneumoniae [49] = assay: Antimicrobial activity against multidrug resistant Klebsiella pneumoniae isolate 16 by broth dilution method; type: functional
# Klebsiella aerogenes [50] = assay: Antimicrobial activity against multidrug resistant Enterobacter aerogenes ATCC 15038 by broth dilution method; type: functional
# Klebsiella aerogenes [51] = assay: Antimicrobial activity against multidrug resistant Enterobacter aerogenes ATCC 15038 harboring pDrive plasmid by broth dilution method; type: functional
# Klebsiella aerogenes [52] = assay: Antimicrobial activity against multidrug resistant Enterobacter aerogenes ATCC 15038 harboring pACM204 plasmid by broth dilution method; type: functional
# Klebsiella aerogenes [53] = assay: Antimicrobial activity against multidrug resistant Enterobacter aerogenes ATCC 15038 harboring pDrive plasmid expressing ampC gene by broth dilution method; type: functional
# Escherichia coli [54] = assay: Antimicrobial activity against multidrug resistant Escherichia coli ATCC 35218 by broth dilution method; type: functional
# Escherichia coli [55] = assay: microbe, parasite or virus in culture; settings: DH5[alpha]
# Description: Antimicrobial activity against multidrug resistant Escherichia coli DH5[alpha] by broth dilution method
# Escherichia coli [56] = assay: microbe, parasite or virus in culture; settings: DH5[alpha]; remark: listed apart in the source
# Description: Antimicrobial activity against multidrug resistant Escherichia coli DH5[alpha] harboring pDrive plasmid by broth dilution method
# Escherichia coli [57] = assay: microbe, parasite or virus in culture; settings: DH5[alpha]; remark: listed apart in the source
# Description: Antimicrobial activity against multidrug resistant Escherichia coli DH5[alpha] harboring pDrive plasmid expressing ampC gene by broth dilution method
# Escherichia coli [58] = assay: microbe, parasite or virus in culture; settings: DH5[alpha]; remark: listed apart in the source
# Description: Antimicrobial activity against multidrug resistant Escherichia coli DH5[alpha] harboring pACM204 plasmid by broth dilution method
# Escherichia coli [59] = assay: microbe, parasite or virus in culture; settings: ATCC 35218
# Description: Antimicrobial activity against multidrug resistant Escherichia coli ATCC 35218 harboring pDrive plasmid by broth dilution method
# Escherichia coli [60] = assay: microbe, parasite or virus in culture; settings: ATCC 35218; remark: listed apart in the source
# Description: Antimicrobial activity against multidrug resistant Escherichia coli ATCC 35218 harboring pDrive plasmid expressing ampC gene by broth dilution method
smiles,measurement,setting,value
N#CC(C#N)=NNc1cccc(Cl)c1 [CARBONYL CYANIDE M-CHLOROPHENYLHYDRAZONE],fold change (FC),Klebsiella aerogenes [1],2
same,fold change (FC),Klebsiella aerogenes [2],2
same,fold change (FC),Klebsiella aerogenes [3],2
same,fold change (FC),Klebsiella pneumoniae [4],2
same,fold change (FC),Klebsiella pneumoniae [5],2
CC(C)(O/N=C(\C(=O)N[C@@H]1C(=O)N2C(C(=O)[O-])=C(C[n+]3ccccc3)CS[C@H]12)c1csc(N)n1)C(=O)O [CEFTAZIDIME],MIC,Klebsiella aerogenes [6],> 2050 µg/mL
same,MIC,Klebsiella aerogenes [7],> 2050 µg/mL
same,MIC,Klebsiella aerogenes [8],> 2050 µg/mL
same,MIC,Klebsiella aerogenes [9],> 2050 µg/mL
same,MIC,Klebsiella aerogenes [10],> 2050 µg/mL
same,MIC,Klebsiella aerogenes [11],256 µg/mL
same,MIC,Klebsiella aerogenes [12],> 2050 µg/mL
same,MIC,Klebsiella aerogenes [13],> 2050 µg/mL
same,MIC,Klebsiella aerogenes [14],> 2050 µg/mL
same,MIC,Klebsiella aerogenes [15],> 2050 µg/mL
same,MIC,Klebsiella aerogenes [16],> 2050 µg/mL
same,MIC,Klebsiella aerogenes [17],> 2050 µg/mL
same,MIC,Klebsiella aerogenes [18],> 2050 µg/mL
same,MIC,Klebsiella aerogenes [19],> 2050 µg/mL
same,MIC,Klebsiella aerogenes [20],> 2050 µg/mL
same,MIC,Klebsiella aerogenes [21],> 2050 µg/mL
same,MIC,Klebsiella aerogenes [22],> 2050 µg/mL
same,MIC,Klebsiella aerogenes [23],1020 µg/mL
same,MIC,Klebsiella aerogenes [24],> 2050 µg/mL
same,MIC,Klebsiella aerogenes [25],> 2050 µg/mL
same,MIC,Klebsiella aerogenes [26],> 2050 µg/mL
same,MIC,Klebsiella aerogenes [27],> 2050 µg/mL
same,MIC,Klebsiella aerogenes [28],2050 µg/mL
same,MIC,Klebsiella aerogenes [29],> 2050 µg/mL
same,MIC,Klebsiella aerogenes [30],> 2050 µg/mL
same,MIC,Klebsiella aerogenes [31],1020 µg/mL
same,MIC,Klebsiella aerogenes [32],> 2050 µg/mL
same,MIC,Klebsiella pneumoniae [33],0.5 µg/mL
same,MIC,Klebsiella pneumoniae [34],2050 µg/mL
same,MIC,Klebsiella pneumoniae [35],2050 µg/mL
same,MIC,Klebsiella pneumoniae [36],> 2050 µg/mL
same,MIC,Klebsiella pneumoniae [37],> 2050 µg/mL
same,MIC,Klebsiella pneumoniae [38],> 2050 µg/mL
same,MIC,Klebsiella pneumoniae [39],32 µg/mL
same,MIC,Klebsiella pneumoniae [40],> 2050 µg/mL
same,MIC,Klebsiella pneumoniae [41],> 2050 µg/mL
same,MIC,Klebsiella pneumoniae [42],> 2050 µg/mL
same,MIC,Klebsiella pneumoniae [43],> 2050 µg/mL
same,MIC,Klebsiella pneumoniae [44],> 2050 µg/mL
same,MIC,Klebsiella pneumoniae [45],16 µg/mL
same,MIC,Klebsiella pneumoniae [46],16 µg/mL
same,MIC,Klebsiella pneumoniae [47],16 µg/mL
same,MIC,Klebsiella pneumoniae [48],> 2050 µg/mL
same,MIC,Klebsiella pneumoniae [49],2050 µg/mL
same,MIC,Klebsiella aerogenes [50],0.25 µg/mL
same,MIC,Klebsiella aerogenes [51],0.5 µg/mL
same,MIC,Klebsiella aerogenes [52],64 µg/mL
same,MIC,Klebsiella aerogenes [53],64 µg/mL
same,MIC,Escherichia coli [54],0.125 µg/mL
same,MIC,Escherichia coli [55],2 µg/mL
same,MIC,Escherichia coli [56],2 µg/mL
same,MIC,Escherichia coli [57],32 µg/mL
same,MIC,Escherichia coli [58],32 µg/mL
same,MIC,Escherichia coli [59],0.5 µg/mL
same,MIC,Escherichia coli [60],16 µg/mL
